# Test results reported in patent US20240217983A1, “GPR119 AGONISTS” (Kallyope, Inc., priority 2021, published 2024).
# Target: T1, human GPR119 (hGPR119) (Homo sapiens, UniProt Q8TDV5)
# T1 construct: expressed in transfected cells
# T1 sequence (Q8TDV5 1-335): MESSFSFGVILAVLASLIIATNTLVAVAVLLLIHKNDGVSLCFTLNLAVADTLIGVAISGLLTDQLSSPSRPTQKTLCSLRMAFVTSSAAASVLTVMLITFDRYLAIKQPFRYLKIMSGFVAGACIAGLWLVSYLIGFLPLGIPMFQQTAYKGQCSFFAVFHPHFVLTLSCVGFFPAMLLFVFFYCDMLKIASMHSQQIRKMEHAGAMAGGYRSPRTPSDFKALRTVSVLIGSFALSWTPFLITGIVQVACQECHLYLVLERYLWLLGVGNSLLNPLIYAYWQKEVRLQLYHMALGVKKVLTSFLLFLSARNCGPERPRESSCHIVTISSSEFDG
# Assay: cAMP accumulation assay (Cisbio cAMP Gs dynamic HTRF kit) in CHO-K1 cells stably expressing human GPR119
# Assay type: cell-based
# Conditions: 4-parameter fit; for Emax: 1 h, % activity normalized to Max and Min controls; for EC50: 60 minutes at 37° C.
# Protocol: CHO-K1 cells stably expressing human GPR119 (hGPR119) were prepared by transfection of a GPR119-carrying plasmid using Lipofectamine 2000 (following manufacturer instructions). A stable cell line was established using the limiting dilution method with geneticine selection. Assay-ready frozen (ARF) cells were prepared and used throughout the study.
# The assay was performed in a 384-well plate format using the cAMP Gs dynamic assay kit from Cisbio. ARF cells expressing hGPR119 were thawed, washed and then resuspended in cAMP stimulation buffer at a cell density of 1.1×10^6 cells/mL. Cells were plated at a density of ˜10,000 cells/well (9 μL/well). Dose response curves for the tested compounds were prepared in a cAMP stimulation buffer, containing 0.1% Tween 80 at 4 fold the final concentration. The compounds were then transferred to the cell plates using BRAVO (3 μL/well) and the plates were incubated for 60 minutes at 37° C./5% CO2. Detection buffer (10 μL, prepared as described in the cAMP Gs dynamic kit) were added to each well, and the plates were incubated at ambient temperature for 1 hr.
# RT-FRET was measured using a ClarioSTAR plate reader, calculating the ratio between emissions at 665 nm and 620 nm (HTRF ratio). The HTRF ratio for positive (Max) and negative (Min) controls were used to normalize HTRF data and generate values for % activity. EC50 and Max activity values were determined using a standard 4-parameter fit.
SMILES,Emax [%],EC50 [µM]
"O=C(Cc1ccc(OCCCC2CCN(c3ncc(Cl)cn3)CC2)cc1F)N1CCC2(CCCN2C[C@H](O)[C@@H](O)[C@H](O)[C@H](O)CO)C1 (stereo in doubt) [Example 75, 2-(4-(3-(1-(5-chloropyrimidin-2-yl)piperidin-4-yl)propoxy)-2-fluorophenyl)-1-(1-((2S,3R,4R,5R)-2,3,4,5,6-pentahydroxyhexyl)-1,7-diazaspiro[4.4]nonan-7-yl)ethan-1-one]",≥ 130,≤ 0.1
"O=C(Cc1ccc(OCCCC2CCN(c3ncc(Cl)cn3)CC2)cc1F)N1CCC2(CCCC2NC[C@H](O)[C@@H](O)[C@H](O)[C@H](O)CO)C1 (stereo in doubt) [Example 77, 2-(4-(3-(1-(5-chloropyrimidin-2-yl)piperidin-4-yl)propoxy)-2-fluorophenyl)-1-(6-(((2S,3R,4R,5R)-2,3,4,5,6-pentahydroxyhexyl)amino)-2-azaspiro[4.4]nonan-2-yl)ethan-1-one]",≥ 130,≤ 0.1
"O=C(Cc1ccc(OCCCC2CCN(c3ncc(Cl)cn3)CC2)cc1F)N1CC2(CCC2NC[C@H](O)[C@@H](O)[C@H](O)[C@H](O)CO)C1 (stereo in doubt) [Example 79, 2-(4-(3-(1-(5-chloropyrimidin-2-yl)piperidin-4-yl)propoxy)-2-fluorophenyl)-1-(5-(((2S,3R,4R,5R)-2,3,4,5,6-pentahydroxyhexyl)amino)-2-azaspiro[3.3]heptan-2-yl)ethan-1-one]",≥ 130,≤ 0.1
"O=C(Cc1ccc(OCCCC2CCN(c3ncc(Cl)cn3)CC2)cc1F)N1CC[C@]2(CCC2NCC(O)C(O)C(O)CO)C1 (stereo in doubt) [Example 84, 2-(4-(3-(1-(5-chloropyrimidin-2-yl)piperidin-4-yl)propoxy)-2-fluorophenyl)-1-(1-(((2S,3S,4R)-2,3,4,5-tetrahydroxypentyl)amino)-6-azaspiro[3.4]octan-6-yl)ethan-1-one]",≥ 130,≤ 0.1
"O=C(CCCCS(=O)(=O)O)N1CCC2(CCN(C(=O)Cc3ccc(OCCCC4CCN(c5ncc(Cl)cn5)CC4)cc3F)C2)C1 (stereo not shown) [Example 1, 5-(7-(2-(4-(3-(1-(5-chloropyrimidin-2-yl)piperidin-4-yl)propoxy)-2-fluorophenyl)acetyl)-2,7-diazaspiro[4.4]nonan-2-yl)-5-oxopentane-1-sulfonic acid]",100 to 130,≤ 0.1
"O=C(Cc1ccc(OCCCC2CCN(c3ncc(Cl)cn3)CC2)cc1F)N1CCC2(C1)CN(C(=O)CCCCS(=O)(=O)O)C2 [Example 2, 5-(6-(2-(4-(3-(1-(5-chloropyrimidin-2-yl)piperidin-4-yl)propoxy)-2-fluorophenyl)acetyl)-2,6-diazaspiro[3.4]octan-2-yl)-5-oxopentane-1-sulfonic acid]",≥ 130,≤ 0.1
"O=C(CCCCS(=O)(=O)O)N1CC2(C1)CN(C(=O)Cc1ccc(OCCCC3CCN(c4ncc(Cl)cn4)CC3)cc1F)C2 [Example 3, 5-(6-(2-(4-(3-(1-(5-chloropyrimidin-2-yl)piperidin-4-yl)propoxy)-2-fluorophenyl)acetyl)-2,6-diazaspiro[3.3]heptan-2-yl)-5-oxopentane-1-sulfonic acid]",100 to 130,≤ 0.1
"O=C(Cc1ccc(OCCCC2CCN(c3ncc(Cl)cn3)CC2)cc1F)N1CCC2(CCN2C(=O)CCCCS(=O)(=O)O)C1 (stereo not shown) [Example 4, 5-(6-(2-(4-(3-(1-(5-chloropyrimidin-2-yl)piperidin-4-yl)propoxy)-2-fluorophenyl)acetyl)-1,6-diazaspiro[3.4]octan-1-yl)-5-oxopentane-1-sulfonic acid]",100 to 130,≤ 0.1
"O=C(Cc1ccc(OCCCC2CCN(c3ncc(Cl)cn3)CC2)cc1F)N1CC2(CCN2C(=O)CCCCS(=O)(=O)O)C1 [Example 5, 5-(6-(2-(4-(3-(1-(5-chloropyrimidin-2-yl)piperidin-4-yl)propoxy)-2-fluorophenyl)acetyl)-1,6-diazaspiro[3.3]heptan-1-yl)-5-oxopentane-1-sulfonic acid]",100 to 130,≤ 0.1
"O=C(Cc1ccc(OCCCC2CCN(c3ncc(Cl)cn3)CC2)cc1F)N1C[C@@H]2CCN(C(=O)CCCCS(=O)(=O)O)[C@@H]2C1 [Example 6, 5-((3aS,6aS)-5-(2-(4-(3-(1-(5-chloropyrimidin-2-yl)piperidin-4-yl)propoxy)-2-fluorophenyl)acetyl)hexahydropyrrolo[3,4-b]pyrrol-1(2H)-yl)-5-oxopentane-1-sulfonic acid]",≥ 130,≤ 0.1
"O=C(Cc1ccc(OCCCC2CCN(c3ncc(Cl)cn3)CC2)cc1F)N1C[C@H]2CN(C(=O)CCCCS(=O)(=O)O)[C@H]2C1 [Example 7, 5-((1S,5R)-3-(2-(4-(3-(1-(5-chloropyrimidin-2-yl)piperidin-4-yl)propoxy)-2-fluorophenyl)acetyl)-3,6-diazabicyclo[3.2.0]heptan-6-yl)-5-oxopentane-1-sulfonic acid]",100 to 130,0.1 to 1
"O=C(CCCCS(=O)(=O)O)N1C[C@H]2CN(C(=O)Cc3ccc(OCCCC4CCN(c5ncc(Cl)cn5)CC4)cc3F)[C@H]2C1 [Example 8, 5-((1S,5R)-6-(2-(4-(3-(1-(5-chloropyrimidin-2-yl)piperidin-4-yl)propoxy)-2-fluorophenyl)acetyl)-3,6-diazabicyclo[3.2.0]heptan-3-yl)-5-oxopentane-1-sulfonic acid]",100 to 130,≤ 0.1
"O=C(CCCCS(=O)(=O)O)N1CC2(CCN2C(=O)Cc2ccc(OCCCC3CCN(c4ncc(Cl)cn4)CC3)cc2F)C1 [Example 9, 5-(1-(2-(4-(3-(1-(5-chloropyrimidin-2-yl)piperidin-4-yl)propoxy)-2-fluorophenyl)acetyl)-1,6-diazaspiro[3.3]heptan-6-yl)-5-oxopentane-1-sulfonic acid]",100 to 130,> 10
"O=C(CCCCS(=O)(=O)O)N1C[C@@H]2CN(C(=O)Cc3ccc(OCCCC4CCN(c5ncc(Cl)cn5)CC4)cc3F)C[C@@H]2C1 [Example 10, 5-((3aR,6aS)-5-(2-(4-(3-(1-(5-chloropyrimidin-2-yl)piperidin-4-yl)propoxy)-2-fluorophenyl)acetyl)hexahydropyrrolo[3,4-c]pyrrol-2(1H)-yl)-5-oxopentane-1-sulfonic acid]",100 to 130,≤ 0.1
"O=C(CCCCS(=O)(=O)O)N1C[C@H]2C[C@@H]1CN2C(=O)Cc1ccc(OCCCC2CCN(c3ncc(Cl)cn3)CC2)cc1F [Example 11, 5-((1R,4R)-5-(2-(4-(3-(1-(5-chloropyrimidin-2-yl)piperidin-4-yl)propoxy)-2-fluorophenyl)acetyl)-2,5-diazabicyclo[2.2.1]heptan-2-yl)-5-oxopentane-1-sulfonic acid]",100 to 130,≤ 0.1
"O=C(Cc1ccc(OCCCC2CCN(c3ncc(Cl)cn3)CC2)cc1F)N1CC2CC(C1)N2C(=O)CCCCS(=O)(=O)O [Example 12, 5-(3-(2-(4-(3-(1-(5-chloropyrimidin-2-yl)piperidin-4-yl)propoxy)-2-fluorophenyl)acetyl)-3,6-diazabicyclo[3.1.1]heptan-6-yl)-5-oxopentane-1-sulfonic acid]",100 to 130,≤ 0.1
"O=C(CCCCS(=O)(=O)O)N1CCCN(C(=O)Cc2ccc(OCCCC3CCN(c4ncc(Cl)cn4)CC3)cc2F)CC1 [Example 13, 5-(4-(2-(4-(3-(1-(5-chloropyrimidin-2-yl)piperidin-4-yl)propoxy)-2-fluorophenyl)acetyl)-1,4-diazepan-1-yl)-5-oxopentane-1-sulfonic acid]",100 to 130,0.1 to 1
"O=C(CCCCS(=O)(=O)O)N1CC2CCC1CN2C(=O)Cc1ccc(OCCCC2CCN(c3ncc(Cl)cn3)CC2)cc1F (stereo not shown) [Example 14, 5-(5-(2-(4-(3-(1-(5-chloropyrimidin-2-yl)piperidin-4-yl)propoxy)-2-fluorophenyl)acetyl)-2,5-diazabicyclo[2.2.2]octan-2-yl)-5-oxopentane-1-sulfonic acid]",100 to 130,≤ 0.1
"O=C(CCCCS(=O)(=O)O)N1C[C@@H]2C[C@H]1CN2C(=O)Cc1ccc(OCCCC2CCN(c3ncc(Cl)cn3)CC2)cc1F [Example 15, 5-((1S,4S)-5-(2-(4-(3-(1-(5-chloropyrimidin-2-yl)piperidin-4-yl)propoxy)-2-fluorophenyl)acetyl)-2,5-diazabicyclo[2.2.1]heptan-2-yl)-5-oxopentane-1-sulfonic acid]",100 to 130,≤ 0.1
"O=C(CCCCS(=O)(=O)O)N1CC2CC(C1)N2C(=O)Cc1ccc(OCCCC2CCN(c3ncc(Cl)cn3)CC2)cc1F [Example 16, 5-(6-(2-(4-(3-(1-(5-chloropyrimidin-2-yl)piperidin-4-yl)propoxy)-2-fluorophenyl)acetyl)-3,6-diazabicyclo[3.1.1]heptan-3-yl)-5-oxopentane-1-sulfonic acid]",100 to 130,≤ 0.1
